The IC50 is the concentration at which inhibition is half-maximal. High values mean weaker potency, low ones greater potency.

Among the data in ChEMBL document CHEMBL1122736, “Replacement of the peptide-backbone amides connecting Tyr-Gly and Gly-Gly in leucine-enkephalin with ketomethylene groups: synthesis and biological activity” (J Med Chem, 1984) are Analgesic response and IC50 values, retold here.

For experiment [1], the system named is Mus musculus. Description: Analgesic activity in mice by tail-flick test after intracerebroventricular administration at a dose of 40 ug/mouse after time duration of 2 minutes; no of mice survived / total no of mice tested-2. It counts as functional. In general terms: Hot-plate and tail-flick tests time the reaction to a heat stimulus.
In experiment [2] the test system is Mus musculus. Description: Analgesic activity in mice by tail-flick test after intracerebroventricular administration at a dose of 60 ug/mouse after time duration of 2 minutes; no of mice survived / total no of mice tested-2. The class given is functional.
The subject of experiment [3] is Mus musculus. Description: Analgesic activity in mice by tail-flick test after intracerebroventricular administration at a dose of 48 ug/mouse after time duration of 2 minutes; no of mice survived / total no of mice tested-2. It counts as functional.
The test system of experiment [4] is Mus musculus. Description: Analgesic activity in mice by tail-flick test after intracerebroventricular administration at a dose of 60 ug/mouse after time duration of 4 minutes; no of mice survived / total no of mice tested-3. The class given is functional.
Experiment [5] has as its system Mus musculus. Description: Analgesic activity in mice by tail-flick test after intracerebroventricular administration at a dose of 40 ug/mouse after time duration of 4 minutes; no of mice survived / total no of mice tested-3. It counts as functional.
Experiment [6] concerns Mus musculus. Description: Analgesic activity in mice by tail-flick test after intracerebroventricular administration at a dose of 60 ug/mouse after time duration of 8 minutes; no of mice survived / total no of mice tested-3. The class given is functional.
Experiment [7] relates to Mus musculus. Nature of the experiment: Analgesic activity in mice by tail-flick test after intracerebroventricular administration at a dose of 48 ug/mouse after time duration of 4 minutes; no of mice survived / total no of mice tested-3. It counts as functional.
The target in experiment [8] is Opioid receptor (Rattus norvegicus). Nature of the experiment: Concentration required to inhibit the specific binding of tritiated ligand [3H]DADL to opiate receptor by 50%.
Experiment [9] shares this target. Description: Concentration required to inhibit the specific binding of tritiated ligand [3H]naloxone to opiate receptor by 50%.
Experiment [10] deals with Mus musculus. Description: Analgesic activity in mice by tail-flick test after intracerebroventricular administration at a dose of 12.2 ug/mouse after time duration of 2 minutes; no of mice survived / total no of mice tested-12. It counts as functional.
The subject of experiment [11] is Mus musculus. Description: Analgesic activity in mice by tail-flick test after intracerebroventricular administration at a dose of 24.3 ug/mouse after time duration of 2 minutes; no of mice survived / total no of mice tested-12. It counts as functional.
Experiment [12] has as its system Mus musculus. Nature of the experiment: Analgesic activity in mice by tail-flick test after intracerebroventricular administration at a dose of 40 ug/mouse after time duration of 8 minutes; no of mice survived / total no of mice tested-3. The class given is functional.
In experiment [13] the test system is Mus musculus. Description: Analgesic activity in mice by tail-flick test after intracerebroventricular administration at a dose of 48 ug/mouse after time duration of 8 minutes; no of mice survived / total no of mice tested-3. The class given is functional.
Experiment [14] has as its system Mus musculus. Description: Analgesic activity in mice by tail-flick test after intracerebroventricular administration at a dose of 240 ug/mouse after time duration of 2 minutes; no of mice survived / total no of mice tested-6. The class given is functional.

For the compound `CC(C)CC(NC(=O)C(Cc1ccccc1)NC(=O)CCC(=O)CCC(=O)C(N)Cc1ccc(O)cc1)C(=O)O` (centres undefined), the Analgesic response in the experiment on Mus musculus [1] stood at 1; in the experiment with Mus musculus [2] it was 1; in the experiment with Mus musculus [3], 1; in the experiment on Mus musculus [4] it was 1; in the experiment with Mus musculus [5] it was 1; with Mus musculus [6] it was 0. In addition, the Analgesic response in the experiment on Mus musculus [7] is 1; in the experiment with Mus musculus [10], 2; in the experiment on Mus musculus [11] it was 6; in the experiment with Mus musculus [12] it was 0; in the experiment on Mus musculus [13], 0. Moreover, the IC50 in experiment [8] came out at 33 µM; in experiment [9] it was 180 µM.

As for `CC(C)C[C@@H](NC(=O)[C@H](Cc1ccccc1)NC(=O)CNC(=O)[C@@H](C)NC(=O)[C@@H](N)Cc1ccc(O)cc1)C(=O)O` [DADLE], the Analgesic response in the experiment on Mus musculus [14] is 4.
